According to patent US20250144176A1, “COMPOSITIONS COMPRISING OSTEOPONTIN (OPN)” (SOCIETE DES PRODUITS NESTLE S.A., priority 2022, published 2025):

What was measured:
[1] = system: pneumonia virus of mice (PVM); test: Neonatal mouse model of PVM-induced bronchiolitis: lung immune cells counted by multi-colour flow cytometry; type: in vivo, mice (C57BL/6 pups)
Text: (§1) C57BL/6 pups were either nursed by OPN-sufficient or OPN-deficient dams.
(§2) At postnatal day 5 (PND5), mice receiving OPN-deficient mother's milk were fed with either a whey protein concentrate (WPC) enriched in OPN (OPNenriched group) or a control WPC (OPN− group) once daily for 15 consecutive days.
(§3) In a similar way, at PND5, mice receiving OPN-sufficient mother's milk were fed with control WPC (OPN+ group) once daily for 15 consecutive days.
(§4) At PND10, all animals were infected intra-nasally (i.n.) with 10 PFU of PVM (J3666) to induce bronchiolitis.
(§5) The used OPN-enriched WPC contained 79 g protein per 100 g, and 729 mg OPN per 100 g. The pups in the OPNenriched group were fed the OPN-enriched WPC as a supplement to deliver 12 μg OPN per average gram of bodyweight per day.
To investigate whether OPN intervention has an impact on immune cell composition, the number of pDCs, CD4+ and CD8+ T cells and neutrophils in lung tissues 5 and/or 9 days post infection were enumerated using multi-colour flow cytometry. Isolated single-cell suspensions from the lungs were washed with PBS/2% FCS, and red blood cells were lysed using Gey's buffer. Cells were washed again, followed by incubation with anti-FcγRIII/II for 15 min at 4° C. Cells were stained using fluorescently labeled antibodies described in the gating strategies herein, with DAPI, 7-AAD, or Zombie NIR used to exclude dead cells.

[2] = system: pneumonia virus of mice (PVM); test: Neonatal mouse model of PVM-induced bronchiolitis: viral load (PVM-positive airway epithelial cells) and airway epithelial sloughing; type: in vivo, mice (C57BL/6 pups)
Text: as §1, §2, §3, §4, §5
To assess whether OPN intervention has an impact on pathogen expansion, viral load in PVM-infected mice was assessed as the percentage of PVM-positive airway epithelial cells (AEC) stained with an antibody against a specific PVM-glycoprotein. […] AEC detachment is a key feature of viral bronchiolitis and known to be associated with disease severity and viral load. Sloughing of the airway epithelium was quantified by measuring the length of sloughed airway epithelium and expressing this as a percentage of the basement membrane length of a single airway.

[3] = system: pneumonia virus of mice (PVM); test: Neonatal mouse model of PVM-induced bronchiolitis: airway smooth muscle remodeling by α-smooth muscle actin immunohistochemistry; type: in vivo, mice (C57BL/6 pups); conditions: 9 dpi; OPNenriched group, remodeling dysregulated in OPN− group; FIG. 7
Text: as §1, §2, §3, §4, §5

lipopolysaccharide (LPS) = conditions: early life dietary supplementation; cited from earlier work
immune cell profile = conditions: infants fed formula supplemented with bovine OPN; cited from earlier work

| Substance | number of CD4+ cells in lung tissues ([1]; 5 dpi (peak of viral infection), OPNenriched group vs OPN− group, FIG. 4a) | CD4+ T cell accumulation in the lungs ([1]; 9 dpi (peak of immunopathology), OPNenriched group vs OPN− group, FIG. 4b) | neutrophil infiltration to the airways (granulocytic inflammation) ([1]; 9 dpi, FIG. 6) | number of pDCs in the lung ([1]; OPNenriched group vs OPN− group, FIG. 3) | virus infected (PVM-positive) airway epithelial cells (AEC), percentage ([2]; 5 dpi, OPNenriched group vs OPN− group, 12 μg OPN per gram bodyweight per day, once daily for 15 days from PND5, FIG. 2a) | sloughing of the airway epithelium (percentage of basement membrane length) ([2]; 9 dpi, OPNenriched group vs OPN+ group, sloughing significantly elevated in OPN− group, FIG. 2b) | pathological airway smooth muscle remodeling (ASM area) [3] | inflammation resulting from LPS administration (lipopolysaccharide (LPS)) | immune cell profile of infants (immune cell profile) |
| --- | --- | --- | --- | --- | --- | --- | --- | --- | --- |
| osteopontin [OPN] | significantly higher number | significant decline | reduced granulocytic inflammation | increased number | significant decrease | close to the OPN+ group | attenuated pathological airway smooth muscle remodeling |  |  |
| bovine OPN: Bovine milk osteopontin, 262 residues, used as dietary supplement in cited studies |  |  |  |  |  |  |  | reduced inflammation | more similar to breastfed infants |
